According to the kinase profiling compilation of Christmann-Franck et al. (2016):

Tests used:
Experiment in all cases: radiometric filter-binding kinase assay
AURKB (human) = AURKB (human) (UniProt Q96GD4)
BRSK1 (human) = BRSK1 (human) (UniProt Q8TDC3)
BTK (human) = BTK (human) (UniProt Q06187)
CAMKK2 (human) = CAMKK2 (human) (UniProt Q96RR4)
CSK (human) = CSK (human) (UniProt P41240)
CSNK1D (human) = CSNK1D (human) (UniProt P48730)
CaMK1 (human) = CaMK1 (human) (UniProt Q14012)
DYRK1A (human) = DYRK1A (human) (UniProt Q13627)
DYRK2 (human) = DYRK2 (human) (UniProt Q92630)
EPHA4 (human) = EPHA4 (human) (UniProt P54764)
EPHB2 (human) = EPHB2 (human) (UniProt P29323)
EPHB3 (human) = EPHB3 (human) (UniProt P54753)
HIPK2 (human) = HIPK2 (human) (UniProt Q9H2X6)
IGF1R (human) = IGF1R (human) (UniProt P08069)
IKBKB (human) = IKBKB (human) (UniProt O14920)
IKBKE (human) = IKBKE (human) (UniProt Q14164)
MAP2K2 (human) = MAP2K2 (human) (UniProt P36507)
MAP3K11 (human) = MAP3K11 (human) (UniProt Q16584)
MAP3K7 TAB1 (human) = MAP3K7 TAB1 (human) (UniProt Q15750+O43318)
MAPK12 (human) = MAPK12 (human) (UniProt P53778)
MAPK14 (human) = MAPK14 (human) (UniProt Q16539)
MAPK8 (human) = MAPK8 (human) (UniProt P45983)
MAPK9 (human) = MAPK9 (human) (UniProt P45984)
MAPKAPK2 (human) = MAPKAPK2 (human) (UniProt P49137)
MELK (human) = MELK (human) (UniProt Q14680)
MINK1 (human) = MINK1 (human) (UniProt Q8N4C8)
MKNK2 (human) = MKNK2 (human) (UniProt Q9HBH9)
PAK4 (human) = PAK4 (human) (UniProt O96013)
PAK7 (human) = PAK7 (human) (UniProt Q9P286)
PIM1 (human) = PIM1 (human) (UniProt P11309)
PRKACA (human) = PRKACA (human) (UniProt P17612)
RIPK2 (human) = RIPK2 (human) (UniProt O43353)
YES1 (human) = YES1 (human) (UniProt P07947)
MAPK15 (human) = MAPK15 (human) (UniProt Q8TD08); settings: compound 0.1 µM

Sequence of PAK4 (human) (O96013 whole entry, looked up): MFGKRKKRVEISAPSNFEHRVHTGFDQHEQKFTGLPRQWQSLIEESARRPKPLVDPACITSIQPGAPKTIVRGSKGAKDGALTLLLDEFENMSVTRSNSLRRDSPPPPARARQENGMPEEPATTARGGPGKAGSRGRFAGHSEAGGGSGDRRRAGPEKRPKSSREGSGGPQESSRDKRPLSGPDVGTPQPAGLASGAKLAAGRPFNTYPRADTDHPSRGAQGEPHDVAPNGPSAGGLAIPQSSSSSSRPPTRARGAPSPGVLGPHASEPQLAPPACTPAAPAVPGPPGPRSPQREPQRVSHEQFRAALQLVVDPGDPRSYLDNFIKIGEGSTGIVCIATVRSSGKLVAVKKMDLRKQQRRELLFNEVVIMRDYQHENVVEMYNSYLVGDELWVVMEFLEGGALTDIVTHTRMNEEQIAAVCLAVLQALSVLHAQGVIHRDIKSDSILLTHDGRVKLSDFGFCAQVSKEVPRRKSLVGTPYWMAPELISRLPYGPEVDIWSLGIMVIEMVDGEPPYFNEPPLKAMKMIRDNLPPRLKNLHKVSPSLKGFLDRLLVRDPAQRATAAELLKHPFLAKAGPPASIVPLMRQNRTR
Sequence of MELK (human) (Q14680 whole entry, looked up): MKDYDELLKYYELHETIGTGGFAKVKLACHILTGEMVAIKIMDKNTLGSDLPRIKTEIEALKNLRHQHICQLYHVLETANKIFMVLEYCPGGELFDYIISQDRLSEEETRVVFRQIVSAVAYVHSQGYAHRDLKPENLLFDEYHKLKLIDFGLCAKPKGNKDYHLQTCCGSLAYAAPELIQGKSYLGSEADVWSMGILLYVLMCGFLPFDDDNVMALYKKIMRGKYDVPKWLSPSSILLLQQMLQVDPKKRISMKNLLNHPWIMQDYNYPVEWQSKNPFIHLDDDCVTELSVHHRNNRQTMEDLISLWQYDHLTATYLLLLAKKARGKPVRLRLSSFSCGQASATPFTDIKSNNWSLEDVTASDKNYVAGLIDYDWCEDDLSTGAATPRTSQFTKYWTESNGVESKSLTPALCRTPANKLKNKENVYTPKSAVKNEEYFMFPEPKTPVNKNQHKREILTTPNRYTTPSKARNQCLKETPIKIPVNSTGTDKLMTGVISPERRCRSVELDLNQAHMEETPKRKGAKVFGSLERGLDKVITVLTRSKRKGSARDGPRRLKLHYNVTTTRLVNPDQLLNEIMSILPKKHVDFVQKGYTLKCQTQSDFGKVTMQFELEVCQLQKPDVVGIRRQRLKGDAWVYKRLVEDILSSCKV
Sequence of MAP3K11 (human) (Q16584 whole entry, looked up): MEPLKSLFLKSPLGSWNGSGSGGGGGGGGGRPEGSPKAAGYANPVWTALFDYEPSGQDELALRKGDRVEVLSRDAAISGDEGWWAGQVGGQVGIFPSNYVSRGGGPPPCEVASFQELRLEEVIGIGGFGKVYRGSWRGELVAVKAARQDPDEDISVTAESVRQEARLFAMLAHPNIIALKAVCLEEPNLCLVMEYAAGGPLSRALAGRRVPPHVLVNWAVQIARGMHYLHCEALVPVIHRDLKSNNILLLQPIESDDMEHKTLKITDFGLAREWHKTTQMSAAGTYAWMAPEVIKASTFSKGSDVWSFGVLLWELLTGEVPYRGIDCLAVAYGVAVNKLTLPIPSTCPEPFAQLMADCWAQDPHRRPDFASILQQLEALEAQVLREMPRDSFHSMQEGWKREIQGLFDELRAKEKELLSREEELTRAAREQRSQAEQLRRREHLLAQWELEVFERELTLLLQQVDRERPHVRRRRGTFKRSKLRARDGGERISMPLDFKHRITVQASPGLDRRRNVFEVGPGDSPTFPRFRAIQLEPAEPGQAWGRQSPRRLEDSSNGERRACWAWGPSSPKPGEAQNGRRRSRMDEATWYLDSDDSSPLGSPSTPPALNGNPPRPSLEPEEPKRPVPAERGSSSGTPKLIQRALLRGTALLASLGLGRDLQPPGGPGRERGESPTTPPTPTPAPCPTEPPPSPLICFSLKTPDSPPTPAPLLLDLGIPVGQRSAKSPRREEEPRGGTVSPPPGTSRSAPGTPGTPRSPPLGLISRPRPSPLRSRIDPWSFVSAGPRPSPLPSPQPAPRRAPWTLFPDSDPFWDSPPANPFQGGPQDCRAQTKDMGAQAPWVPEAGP
Sequence of MAPK12 (human) (P53778 whole entry, looked up): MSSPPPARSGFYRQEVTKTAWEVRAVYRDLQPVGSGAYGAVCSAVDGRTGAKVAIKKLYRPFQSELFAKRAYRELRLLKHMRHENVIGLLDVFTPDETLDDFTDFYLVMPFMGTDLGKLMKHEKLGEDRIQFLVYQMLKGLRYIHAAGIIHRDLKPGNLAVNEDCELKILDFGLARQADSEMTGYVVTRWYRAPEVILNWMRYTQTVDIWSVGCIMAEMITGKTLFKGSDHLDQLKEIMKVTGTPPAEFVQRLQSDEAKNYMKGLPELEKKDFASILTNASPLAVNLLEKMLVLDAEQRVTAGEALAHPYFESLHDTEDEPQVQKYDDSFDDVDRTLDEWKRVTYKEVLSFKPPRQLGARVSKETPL
Sequence of IKBKB (human) (O14920 whole entry, looked up): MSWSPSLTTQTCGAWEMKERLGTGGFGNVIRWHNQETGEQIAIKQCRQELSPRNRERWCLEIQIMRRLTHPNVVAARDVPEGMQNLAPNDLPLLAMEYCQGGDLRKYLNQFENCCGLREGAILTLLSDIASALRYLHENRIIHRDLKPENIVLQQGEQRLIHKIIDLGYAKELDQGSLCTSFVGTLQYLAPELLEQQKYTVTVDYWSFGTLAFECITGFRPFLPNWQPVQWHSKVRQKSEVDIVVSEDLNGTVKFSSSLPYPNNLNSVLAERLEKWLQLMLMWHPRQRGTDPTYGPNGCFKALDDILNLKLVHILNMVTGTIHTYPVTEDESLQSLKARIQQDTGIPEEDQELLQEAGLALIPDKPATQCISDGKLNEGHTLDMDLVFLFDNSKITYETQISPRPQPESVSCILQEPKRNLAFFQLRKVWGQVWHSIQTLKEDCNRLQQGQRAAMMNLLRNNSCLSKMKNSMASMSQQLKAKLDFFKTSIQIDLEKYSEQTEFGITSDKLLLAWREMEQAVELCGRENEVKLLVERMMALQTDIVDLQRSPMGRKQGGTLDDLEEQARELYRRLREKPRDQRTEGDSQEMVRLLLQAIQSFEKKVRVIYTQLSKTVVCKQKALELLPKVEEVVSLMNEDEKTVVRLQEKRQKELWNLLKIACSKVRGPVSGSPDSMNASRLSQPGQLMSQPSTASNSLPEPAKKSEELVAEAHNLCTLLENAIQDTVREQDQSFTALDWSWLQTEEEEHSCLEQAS
Sequence of MAPK9 (human) (P45984 whole entry, looked up): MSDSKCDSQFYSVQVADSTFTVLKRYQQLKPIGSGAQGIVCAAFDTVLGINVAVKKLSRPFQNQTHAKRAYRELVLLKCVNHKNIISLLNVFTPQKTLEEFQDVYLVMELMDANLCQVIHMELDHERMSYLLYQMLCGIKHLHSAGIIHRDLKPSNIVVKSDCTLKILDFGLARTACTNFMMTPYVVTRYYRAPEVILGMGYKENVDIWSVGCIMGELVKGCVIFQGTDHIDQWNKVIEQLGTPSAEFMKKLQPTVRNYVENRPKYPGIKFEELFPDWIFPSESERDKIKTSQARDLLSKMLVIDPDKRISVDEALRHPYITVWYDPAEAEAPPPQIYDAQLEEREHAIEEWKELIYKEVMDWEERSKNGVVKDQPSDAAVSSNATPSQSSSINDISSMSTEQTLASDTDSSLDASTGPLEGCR
Sequence of EPHB2 (human) (P29323 whole entry, looked up): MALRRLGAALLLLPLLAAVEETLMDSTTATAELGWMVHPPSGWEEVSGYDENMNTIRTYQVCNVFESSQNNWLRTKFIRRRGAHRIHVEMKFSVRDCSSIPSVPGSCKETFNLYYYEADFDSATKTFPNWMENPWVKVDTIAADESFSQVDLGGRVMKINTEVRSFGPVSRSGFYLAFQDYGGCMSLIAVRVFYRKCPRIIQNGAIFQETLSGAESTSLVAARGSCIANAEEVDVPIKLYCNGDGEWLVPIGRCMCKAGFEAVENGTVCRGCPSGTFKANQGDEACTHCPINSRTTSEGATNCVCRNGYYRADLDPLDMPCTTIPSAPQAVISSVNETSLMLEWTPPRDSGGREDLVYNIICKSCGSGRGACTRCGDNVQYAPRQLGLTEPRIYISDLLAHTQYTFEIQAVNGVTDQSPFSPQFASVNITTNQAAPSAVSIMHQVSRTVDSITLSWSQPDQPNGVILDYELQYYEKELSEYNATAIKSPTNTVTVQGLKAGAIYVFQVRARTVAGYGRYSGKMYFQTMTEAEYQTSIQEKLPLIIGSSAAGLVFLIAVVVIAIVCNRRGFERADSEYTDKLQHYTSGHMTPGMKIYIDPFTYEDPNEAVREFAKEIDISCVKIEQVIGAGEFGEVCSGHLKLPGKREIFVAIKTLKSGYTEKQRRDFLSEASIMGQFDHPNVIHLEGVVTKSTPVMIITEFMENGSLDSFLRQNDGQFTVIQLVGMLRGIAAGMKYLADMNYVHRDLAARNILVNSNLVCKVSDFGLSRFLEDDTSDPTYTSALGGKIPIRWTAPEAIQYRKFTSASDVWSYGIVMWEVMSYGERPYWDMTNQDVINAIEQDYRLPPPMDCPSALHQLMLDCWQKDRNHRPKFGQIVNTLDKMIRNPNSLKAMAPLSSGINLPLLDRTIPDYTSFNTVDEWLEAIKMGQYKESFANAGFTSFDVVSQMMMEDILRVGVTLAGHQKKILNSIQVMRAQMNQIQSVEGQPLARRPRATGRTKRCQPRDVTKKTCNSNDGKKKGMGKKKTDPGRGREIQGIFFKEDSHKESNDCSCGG
Sequence of AURKB (human) (Q96GD4 whole entry, looked up): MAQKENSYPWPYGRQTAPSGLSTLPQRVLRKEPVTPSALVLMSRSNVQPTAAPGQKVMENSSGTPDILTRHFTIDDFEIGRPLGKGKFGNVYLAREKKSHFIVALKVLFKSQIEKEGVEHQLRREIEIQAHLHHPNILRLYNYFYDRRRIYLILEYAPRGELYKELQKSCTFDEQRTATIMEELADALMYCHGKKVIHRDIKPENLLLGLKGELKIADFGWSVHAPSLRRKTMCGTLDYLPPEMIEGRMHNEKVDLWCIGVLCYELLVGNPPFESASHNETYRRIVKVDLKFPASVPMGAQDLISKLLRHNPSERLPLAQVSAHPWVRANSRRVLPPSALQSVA

`NS(=O)(=O)OC[C@@H]1C[C@@H](n2ccc3c(N[C@H]4CCc5ccccc54)ncnc32)C[C@@H]1O` gave a residual activity (AURKB (human); compound 10.0 µM) of 93%, a residual activity (BRSK1 (human); compound 1.0 µM) of 89% and a residual activity (BTK (human); compound 10.0 µM) of 105%. The residual activity (CAMKK2 (human); compound 1.0 µM) was 96%, the residual activity (CAMKK2 (human); compound 10.0 µM) was 108% and the residual activity (CSK (human); compound 1.0 µM) was 78%. The residual activity (CSNK1D (human); compound 1.0 µM) was 86%, the residual activity (CSNK1D (human); compound 10.0 µM) was 84% and the residual activity (CaMK1 (human); compound 1.0 µM) was 114%. The residual activity (CaMK1 (human); compound 10.0 µM) was 110%, the residual activity (DYRK1A (human); compound 1.0 µM) was 96% and the residual activity (DYRK1A (human); compound 10.0 µM) was 103%. The residual activity (DYRK2 (human); compound 1.0 µM) was 93%, the residual activity (DYRK2 (human); compound 10.0 µM) was 92% and the residual activity (EPHA4 (human); compound 10.0 µM) was 105%. The residual activity (EPHB2 (human); compound 1.0 µM) was 107%, the residual activity (EPHB2 (human); compound 10.0 µM) was 109% and the residual activity (EPHB3 (human); compound 10.0 µM) was 129%. For the same molecule, the residual activity (HIPK2 (human); compound 1.0 µM) was 88%, the residual activity (HIPK2 (human); compound 10.0 µM) was 97% and the residual activity (IGF1R (human); compound 1.0 µM) was 94%. It also gave a residual activity (IGF1R (human); compound 10.0 µM) of 88%, a residual activity (IKBKB (human); compound 1.0 µM) of 100% and a residual activity (IKBKB (human); compound 10.0 µM) of 96%. It also gave a residual activity (IKBKE (human); compound 1.0 µM) of 73%, a residual activity (IKBKE (human); compound 10.0 µM) of 78% and a residual activity (MAP2K2 (human); compound 1.0 µM) of 104%. For the same molecule, the residual activity (MAP2K2 (human); compound 10.0 µM) was 99%, the residual activity (MAP3K11 (human); compound 1.0 µM) was 92% and the residual activity (MAP3K11 (human); compound 10.0 µM) was 92%. The residual activity (MAP3K7 TAB1 (human); compound 1.0 µM) was 107%, the residual activity (MAP3K7 TAB1 (human); compound 10.0 µM) was 105% and the residual activity (MAPK12 (human); compound 1.0 µM) was 101%. It also gave a residual activity (MAPK12 (human); compound 10.0 µM) of 95%, a residual activity (MAPK14 (human); compound 10.0 µM) of 102% and a residual activity (MAPK8 (human); compound 1.0 µM) of 84%. For the same molecule, the residual activity (MAPK8 (human); compound 10.0 µM) was 97%, the residual activity (MAPK9 (human); compound 1.0 µM) was 83% and the residual activity (MAPK9 (human); compound 10.0 µM) was 88%. For the same molecule, the residual activity (MAPKAPK2 (human); compound 1.0 µM) was 88%, the residual activity (MAPKAPK2 (human); compound 10.0 µM) was 93% and the residual activity (MELK (human); compound 1.0 µM) was 87%. It also gave a residual activity (MELK (human); compound 10.0 µM) of 91%, a residual activity (MINK1 (human); compound 1.0 µM) of 93% and a residual activity (MINK1 (human); compound 10.0 µM) of 96%. For the same molecule, the residual activity (MKNK2 (human); compound 10.0 µM) was 108%, the residual activity (PAK4 (human); compound 1.0 µM) was 101% and the residual activity (PAK4 (human); compound 10.0 µM) was 106%. For the same molecule, the residual activity (PAK7 (human); compound 10.0 µM) was 89%, the residual activity (PIM1 (human); compound 10.0 µM) was 103% and the residual activity (PRKACA (human); compound 1.0 µM) was 73%. It also gave a residual activity (PRKACA (human); compound 10.0 µM) of 81%, a residual activity (RIPK2 (human); compound 1.0 µM) of 107% and a residual activity (RIPK2 (human); compound 10.0 µM) of 121%. The residual activity (YES1 (human); compound 10.0 µM) was 79%.
In the case of `CN1CCN(CCOc2cc(OC3CCOCC3)c3c(Nc4c(Cl)ccc5c4OCO5)ncnc3c2)CC1`, the residual activity (AURKB (human); compound 0.1 µM) is reported as 82%, the residual activity (BRSK1 (human); compound 0.1 µM) is reported as 94% and the residual activity (BTK (human); compound 0.1 µM) is reported as 57%. For the same molecule, the residual activity (CAMKK2 (human); compound 0.1 µM) was 95%, the residual activity (CSK (human); compound 0.1 µM) was 74% and the residual activity (CSNK1D (human); compound 0.1 µM) was 115%. It also gave a residual activity (CaMK1 (human); compound 0.1 µM) of 106%, a residual activity (DYRK1A (human); compound 0.1 µM) of 94% and a residual activity (DYRK2 (human); compound 0.1 µM) of 109%. It also gave a residual activity (EPHA4 (human); compound 0.1 µM) of 49%, a residual activity (EPHB2 (human); compound 0.1 µM) of 66% and a residual activity (EPHB3 (human); compound 0.1 µM) of 89%. It also gave a residual activity (HIPK2 (human); compound 0.1 µM) of 80%, a residual activity (IGF1R (human); compound 0.1 µM) of 97% and a residual activity (IKBKB (human); compound 0.1 µM) of 119%. For the same molecule, the residual activity (IKBKE (human); compound 0.1 µM) was 88%, the residual activity (MAP2K2 (human); compound 0.1 µM) was 107% and the residual activity (MAP3K11 (human); compound 0.1 µM) was 85%. The residual activity (MAP3K7 TAB1 (human); compound 0.1 µM) was 115%, the residual activity (MAPK12 (human); compound 0.1 µM) was 94% and the residual activity (MAPK14 (human); compound 0.1 µM) was 108%. The residual activity (MAPK15 (human)) was 134%, the residual activity (MAPK8 (human); compound 0.1 µM) was 97% and the residual activity (MAPK9 (human); compound 0.1 µM) was 88%. It also gave a residual activity (MELK (human); compound 0.1 µM) of 106%, a residual activity (MINK1 (human); compound 0.1 µM) of 90% and a residual activity (MKNK2 (human); compound 0.1 µM) of 110%. For the same molecule, the residual activity (PAK4 (human); compound 0.1 µM) was 99%, the residual activity (PAK7 (human); compound 0.1 µM) was 98% and the residual activity (PIM1 (human); compound 0.1 µM) was 116%. For the same molecule, the residual activity (PRKACA (human); compound 0.1 µM) was 105%, the residual activity (RIPK2 (human); compound 0.1 µM) was 9% and the residual activity (YES1 (human); compound 0.1 µM) was 4%.
